In brackets after ≈: the same amount, converted by molar mass.
Key:
[1] = target: T1, Lipoxygenase-5 (LOX-5) enzyme (Homo sapiens, UniProt P09917); test: In vitro lipoxygenase (LOX-5) inhibitory assay; format: biochemical; conditions: mean ± SEM, n = 5; read-out: IC50 (LOX-5 inhibition) (converted)
T1 construct: purchased sigma 437996-500U
T1 sequence (P09917 1-674): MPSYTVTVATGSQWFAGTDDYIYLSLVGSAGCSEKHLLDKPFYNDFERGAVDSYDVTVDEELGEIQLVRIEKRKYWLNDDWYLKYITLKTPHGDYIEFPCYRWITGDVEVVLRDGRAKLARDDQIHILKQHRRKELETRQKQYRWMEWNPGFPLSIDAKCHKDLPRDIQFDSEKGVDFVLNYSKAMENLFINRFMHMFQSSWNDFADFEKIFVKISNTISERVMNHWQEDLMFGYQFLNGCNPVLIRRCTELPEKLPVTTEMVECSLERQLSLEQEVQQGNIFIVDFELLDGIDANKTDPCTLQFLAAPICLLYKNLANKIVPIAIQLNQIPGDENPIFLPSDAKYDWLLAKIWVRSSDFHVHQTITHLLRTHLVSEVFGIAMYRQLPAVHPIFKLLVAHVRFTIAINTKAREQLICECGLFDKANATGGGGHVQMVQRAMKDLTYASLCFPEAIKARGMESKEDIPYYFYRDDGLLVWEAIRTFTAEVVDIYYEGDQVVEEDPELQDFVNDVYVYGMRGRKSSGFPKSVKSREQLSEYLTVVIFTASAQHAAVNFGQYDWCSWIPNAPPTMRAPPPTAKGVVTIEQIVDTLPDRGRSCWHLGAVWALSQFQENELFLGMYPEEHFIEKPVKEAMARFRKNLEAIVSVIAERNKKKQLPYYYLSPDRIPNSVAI
Description: Lipoxygenases are a family of monomeric proteins that catalyze oxidation of polyunsaturated fatty acids (PUFA) (linoleic, linolenic and arachidonic acid) to produce hydroperoxides. Fractions’ anti-LOX activity was also measured as inhibition of linoleic acid’s peroxidation to hydroperoxylinoleic acid.
To evaluate the prospects of the newly synthesized spirooxindoles as promising drug candidates, we first studied their inhibitory potency against the Lipoxygenase-5 (LOX-5) enzyme.

S. aureus ATCC 25923 = test: MBC by the agar method; conditions: Staphylococcus aureus, ATCC25923
Description: (§1) To further determine the killing efficiency of the synthesized spiropyrrolidines against selected strains, the minimum bactericidal concentration (MBC) and the minimum fungicidal concentration (MFC) were assessed by the agar method [54].

M. luteus NCIMB 8166 = test: MBC by the agar method; conditions: for MBC: Micrococcus luteus, NCIMB8166
Description: as §1

E. coli ATCC 25922 = test: MBC by the agar method
Description: as §1

P. aeruginosa ATCC 27950 = test: MBC by the agar method; conditions: Pseudomonas aeruginosa, ATCC27950
Description: as §1

C. albicans ATCC 90028 = test: MFC by the agar method; conditions: for MFC: Candida albicans, ATCC90028; for MFC/MIC ratio: C. Albicans, ≤ 4 fungicidal, >4 fungistatic
Description: as §1

C. kreusei ATCC 6258 = test: MFC by the agar method; conditions: for MFC: Pichia kudriavzevii, ATCC6258; for MFC/MIC ratio: C. Krusei, ≤ 4 fungicidal, >4 fungistatic
Description: as §1

[2] = tested on: λ-carrageenan-induced paw edema; test: Carrageenan-induced paw edema test; format: in vivo; conditions: rats; for Increase in Paw Volume, 0 h / Increase in Paw Volume, 1 h / Increase in Paw Volume, 2 h / Increase in Paw Volume, 4 h: 10 mg/kg orally 1 h before carrageenan; for % Inhibition of Edema, 1 h / % Inhibition of Edema, 2 h / % Inhibition of Edema, 4 h: 10 mg/kg orally
Text: Diclofenac sodium was used as a reference drug.

[3] = tested on: acetic acid-induced writhing; test: Acetic acid-induced writhing test (analgesic); conditions: 100 mg/kg; for Number of Writhing: mean ± SE
Description: Any writhing was considered a positive response. The efficacy and potency of analgesic activity of the test compounds is inferred from the reduction in the frequency of writhings [53].
Analgesic activity in rats was determined by the protocol described by Tiss et al. [82].

[4] = Acute toxicity (liver and kidney indices); format: in vivo; conditions: rats
[5] = tested on: Micrococcus luteus NCIMB 8166; test: MIC, in vitro micro diffusion method; format: cell-based; conditions: NCIMB8166, M. luteus NCIMB 8166
Text: In this part, the spiropyrrolidines 4a–m were selected to be screening for their antimicrobial activities, using in vitro micro diffusion method, against multiple bacterial strains (Staphylocoocus aureus ATCC 25923, Escherichia coli ATCC 25922, Pseudomonas aeruginosa ATCC 27950, Micrococcus luteus NCIMB 8166), and two pathogenic reference yeasts namely Candida albicans ATCC 90028 and Candida kreusei ATCC 6258.

[6] = Escherichia coli, ATCC25922, E. coli ATCC 25922

| Structure (SMILES) | IC50 [1] [mM] | melting point [°C] | MBC (S. aureus ATCC 25923) [µg/mL] | MBC (M. luteus NCIMB 8166) [µg/mL] | MBC (E. coli ATCC 25922; [6]) [µg/mL] | MBC (P. aeruginosa ATCC 27950) [µg/mL] | MFC (C. albicans ATCC 90028) [µg/mL] | MFC (C. kreusei ATCC 6258) [µg/mL] | MBC (E. coli ATCC 25922; E. coli ATCC 25922) [µg/mL] | also measured |
| --- | --- | --- | --- | --- | --- | --- | --- | --- | --- | --- |
| O=C(O)Cc1ccccc1Nc1c(Cl)cccc1Cl [Diclofenac sodium, reference compound] |  |  |  |  |  |  |  |  |  | Increase in Paw Volume, 0 h [2]: 0.41 ± 0.11; Increase in Paw Volume, 1 h [2]: 0.59 ± 0.13; Increase in Paw Volume, 2 h [2]: 0.83 ± 0.19; Increase in Paw Volume, 4 h [2]: 1.21 ± 0.39; % Inhibition of Edema, 1 h [2]: 30%; % Inhibition of Edema, 2 h [2]: 46%; % Inhibition of Edema, 4 h [2]: 46%; % Inhibition (writhing) [3]: 63%; Number of Writhing [3]: 23 ± 4; Number of Writhing ([3]; listed as diclofenac sodium): 23 |
| O=C1NC(=O)[C@]2(N1)[C@@H](c1ccc(F)cc1)[C@H](c1ccccc1)N[C@@]21C(=O)Nc2ccccc21 (racemic) [4i] | 2.28 |  | 750 (≈ 1700 µM) | > 1500 | 750 (≈ 1700 µM) | 188 (≈ 424 µM) | 93.8 (≈ 212 µM) | 188 (≈ 424 µM) |  | Increase in Paw Volume, 0 h [2]: 0.43 ± 0.14; Increase in Paw Volume, 1 h [2]: 0.98 ± 0.11; Increase in Paw Volume, 2 h [2]: 1.13 ± 0.21; Increase in Paw Volume, 4 h [2]: 1.51 ± 0.13; % Inhibition of Edema, 1 h [2]: 27%; % Inhibition of Edema, 2 h [2]: 25%; % Inhibition of Edema, 4 h ([2]; 10 mg/kg): 33%; ALT ([4]; dose of 16.25 mg/kg): 21.1 ± 1.5 U/L; AST ([4]; dose of 16.25 mg/kg): 98.3 ± 13 U/L; Albumin ([4]; dose of 16.25 mg/kg): 8.7 ± 1.66 g/L; Creat ([4]; dose of 16.25 mg/kg): 3.31 ± 0.9 µmol/L; Urea ([4]; dose of 16.25 mg/kg): 2.83 ± 0.7 mmol/L; Acute toxicity (result in words) ([4]; up to a dose of 16.25 mg/kg): did not cause any toxicity; MFC/MIC ratio (C. albicans ATCC 90028): ≤ 4; MFC/MIC ratio (C. kreusei ATCC 6258): ≤ 4; % Inhibition (writhing) [3]: 42%; Number of Writhing [3]: 36 ± 5 |
| CN(C)[C@@H]1C(O)=C(C(N)=O)C(=O)[C@@]2(O)C(O)=C3C(=O)c4c(O)cccc4[C@@](C)(O)[C@H]3C[C@@H]12 [Tetracycline, reference compound] |  |  | 8 (≈ 18 µM) | 512 (≈ 1150 µM) | 512 (≈ 1150 µM) | 128 (≈ 288 µM) |  |  |  | MIC [5]: 500 µg/mL (≈ 1130 µM) |
| O=C1NC(=O)[C@]2(N1)[C@@H](c1ccc(F)cc1)[C@H](c1ccccc1)N[C@@]21C(=O)Nc2ccc(Br)cc21 (racemic) [4k] | 2.97 | 223 | 188 (≈ 360 µM) | > 1500 | 188 (≈ 360 µM) | 188 (≈ 360 µM) | 188 (≈ 360 µM) | 188 (≈ 360 µM) |  | MFC/MIC ratio (C. albicans ATCC 90028): ≤ 4; MFC/MIC ratio (C. kreusei ATCC 6258): ≤ 4 |

Now from value to compound, other results behind:

| IC50 [1] [mM] | melting point [°C] | Structure (SMILES) | MBC (S. aureus ATCC 25923) [µg/mL] | MBC (M. luteus NCIMB 8166) [µg/mL] | MBC (E. coli ATCC 25922; [6]) [µg/mL] | MBC (P. aeruginosa ATCC 27950) [µg/mL] | MFC (C. albicans ATCC 90028) [µg/mL] | MFC (C. kreusei ATCC 6258) [µg/mL] | MBC (E. coli ATCC 25922; E. coli ATCC 25922) [µg/mL] | also measured |
| --- | --- | --- | --- | --- | --- | --- | --- | --- | --- | --- |
| 4.03 | 208 | O=C1NC(=O)[C@]2(N1)[C@@H](c1ccc(F)cc1)[C@H](c1ccccc1)N[C@@]21C(=O)Nc2ccc(Cl)cc21 (racemic) [4j] | 93.8 (≈ 197 µM) | 750 (≈ 1570 µM) | 188 (≈ 393 µM) | 93.8 (≈ 197 µM) | 93.8 (≈ 197 µM) | 188 (≈ 393 µM) |  |  |
| 8.96 | 195 | O=C1NC(=O)[C@]2(N1)[C@@H](c1ccc(Cl)cc1)[C@H](c1ccccc1)N[C@@]21C(=O)N(Cc2ccccc2)c2ccccc21 (racemic) [4f] | 188 (≈ 342 µM) | 750 (≈ 1370 µM) | 188 to 374 (≈ 342 to 681 µM) | 375 (≈ 683 µM) | 93.8 (≈ 171 µM) | 93.8 (≈ 171 µM) | 375 (≈ 683 µM) |  |
| 3.09 | 198 | O=C1NC(=O)[C@]2(N1)[C@@H](c1ccc(Cl)cc1)[C@H](c1ccccc1)N[C@@]21C(=O)Nc2ccc(Br)cc21 (racemic) [4h] | 188 (≈ 349 µM) | 188 (≈ 349 µM) | 188 to 374 (≈ 349 to 695 µM) | 188 (≈ 349 µM) | > 1500 | > 1500 | 375 (≈ 697 µM) | MIC [5]: 93.8 µg/mL (≈ 174 µM); MBC/MIC ratio (M. luteus NCIMB 8166; M. luteus, ≤ 4 bactericidal, >4 bacteriostatic): 8 |
| 5.15 | 187 | COc1ccc([C@H]2[C@H](c3ccccc3)N[C@@]3(C(=O)Nc4ccccc43)[C@@]23NC(=O)NC3=O)cc1 (racemic) [4d] | 93.8 (≈ 206 µM) | 750 (≈ 1650 µM) | 188 to 374 (≈ 413 to 823 µM) | 188 (≈ 413 µM) | > 1500 | 93.8 (≈ 206 µM) | 375 (≈ 825 µM) |  |
